Measurements taken from the supplement of paper PMC10307832.

Key:
Assay in all cases: relative viability (nuclei count vs DMSO), 5 days (fraction); higher = more cells survive
[1] = system: LXF-289
How it was run: (§1)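 Lung cancer cell lines in 1536-well plates got either a single drug or a fixed anchor-drug dose together with five library-drug doses (not always all listed) in √10 steps, by pin tool, on the day after seeding. Nuclei were counted after 5 days, and relative viability is the treated-to-vehicle ratio of nuclei counts. Values are medians of duplicate plates.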

[2] = system: NCI-H1793
How it was run: as §1

[3] = system: NCI-H322M
How it was run: as §1

[4] = system: HCC-827
How it was run: as §1

[5] = system: CAL-12T
How it was run: as §1

[6] = system: NCI-H1650
How it was run: as §1

[7] = system: 201T
How it was run: as §1

[8] = system: NCI-H2405
How it was run: as §1

[9] = system: BEN
How it was run: as §1

[10] = system: HCC-44
How it was run: as §1

[11] = system: NCI-H2087
How it was run: as §1

[12] = system: NCI-H1437
How it was run: as §1

[13] = system: NCI-H1355
How it was run: as §1

[14] = system: NCI-H3122
How it was run: as §1

[15] = system: NCI-H1395
How it was run: as §1

[16] = system: NCI-H647
How it was run: as §1

[17] = system: LCLC-103H
How it was run: as §1

[18] = system: SK-LU-1
How it was run: as §1

[19] = system: NCI-H2023
How it was run: as §1

[20] = system: LCLC-97TM1
How it was run: as §1

[21] = system: NCI-H2228
How it was run: as §1

[22] = system: NCI-H727
How it was run: as §1

[23] = system: HOP-62
How it was run: as §1

[24] = system: RERF-LC-KJ
How it was run: as §1

For `CC(C)Oc1cc(Nc2nc(N[C@@H](C)c3ccc(F)cn3)ncc2Cl)n[nH]1` [AZ23] + CS(=O)(=O)N1CCN(Cc2cc3nc(-c4cccc5[nH]ncc45)nc(N4CCOCC4)c3s2)CC1 [Pictilisib] (partner 1 µM), the relative viability ([1]; first compound 0.01 µM) was 0.969, the relative viability ([1]; first compound 0.03162 µM) was 0.818 and the relative viability ([1]; first compound 0.3162 µM) was 0.788. It also gave a relative viability ([2]; first compound 0.01 µM) of 0.318, a relative viability ([2]; first compound 0.03162 µM) of 0.369 and a relative viability ([2]; first compound 0.3162 µM) of 0.371. For the same molecule, the relative viability ([3]; first compound 0.01 µM) was 0.477, the relative viability ([3]; first compound 0.03162 µM) was 0.497 and the relative viability ([3]; first compound 0.3162 µM) was 0.561. For the same molecule, the relative viability ([4]; first compound 0.01 µM) was 1.11, the relative viability ([4]; first compound 0.03162 µM) was 0.978 and the relative viability ([4]; first compound 0.3162 µM) was 1.11. It also gave a relative viability ([5]; first compound 0.03162 µM) of 0.418, a relative viability ([5]; first compound 0.3162 µM) of 0.406 and a relative viability ([6]; first compound 0.01 µM) of 0.553. The relative viability ([6]; first compound 0.03162 µM) was 0.585, the relative viability ([6]; first compound 0.3162 µM) was 0.514 and the relative viability ([7]; first compound 0.01 µM) was 0.685. The relative viability ([7]; first compound 0.03162 µM) was 0.683, the relative viability ([7]; first compound 0.3162 µM) was 0.69 and the relative viability ([8]; first compound 0.01 µM) was 0.412. It also gave a relative viability ([8]; first compound 0.03162 µM) of 0.575, a relative viability ([8]; first compound 0.3162 µM) of 0.429 and a relative viability ([9]; first compound 0.01 µM) of 0.527. The relative viability ([9]; first compound 0.03162 µM) was 0.639, the relative viability ([9]; first compound 0.3162 µM) was 0.653 and the relative viability ([10]; first compound 0.01 µM) was 0.727. It also gave a relative viability ([10]; first compound 0.03162 µM) of 0.629, a relative viability ([10]; first compound 0.3162 µM) of 0.572 and a relative viability ([11]; first compound 0.01 µM) of 0.867. The relative viability ([11]; first compound 0.03162 µM) was 1.06, the relative viability ([11]; first compound 0.3162 µM) was 0.964 and the relative viability ([12]; first compound 0.01 µM) was 0.374. For the same molecule, the relative viability ([12]; first compound 0.03162 µM) was 0.389, the relative viability ([12]; first compound 0.3162 µM) was 0.46 and the relative viability ([13]; first compound 0.01 µM) was 0.367. It also gave a relative viability ([13]; first compound 0.03162 µM) of 0.46, a relative viability ([13]; first compound 0.3162 µM) of 0.401 and a relative viability ([14]; first compound 0.01 µM) of 0.658. For the same molecule, the relative viability ([14]; first compound 0.03162 µM) was 0.598, the relative viability ([14]; first compound 0.3162 µM) was 0.579 and the relative viability ([15]; first compound 0.03162 µM) was 0.666. For the same molecule, the relative viability ([15]; first compound 0.3162 µM) was 0.577, the relative viability ([16]; first compound 0.03162 µM) was 0.5 and the relative viability ([16]; first compound 0.3162 µM) was 0.447. For the same molecule, the relative viability ([17]; first compound 0.01 µM) was 0.571, the relative viability ([17]; first compound 0.03162 µM) was 0.555 and the relative viability ([17]; first compound 0.3162 µM) was 0.533. For the same molecule, the relative viability ([18]; first compound 0.01 µM) was 0.408, the relative viability ([18]; first compound 0.03162 µM) was 0.599 and the relative viability ([18]; first compound 0.3162 µM) was 0.553. The relative viability ([19]; first compound 0.03162 µM) was 0.248, the relative viability ([19]; first compound 0.3162 µM) was 0.192 and the relative viability ([20]; first compound 0.01 µM) was 0.134. The relative viability ([20]; first compound 0.03162 µM) was 0.225, the relative viability ([20]; first compound 0.3162 µM) was 0.157 and the relative viability ([21]; first compound 0.01 µM) was 0.523. For the same molecule, the relative viability ([21]; first compound 0.03162 µM) was 0.346, the relative viability ([21]; first compound 0.3162 µM) was 0.394 and the relative viability ([22]; first compound 0.01 µM) was 0.268. It also gave a relative viability ([22]; first compound 0.03162 µM) of 0.422, a relative viability ([22]; first compound 0.3162 µM) of 0.329 and a relative viability ([23]; first compound 0.01 µM) of 0.635. It also gave a relative viability ([23]; first compound 0.03162 µM) of 1.11, a relative viability ([23]; first compound 0.3162 µM) of 0.874 and a relative viability ([24]; first compound 0.01 µM) of 0.546. For the same molecule, the relative viability ([24]; first compound 0.03162 µM) was 0.507 and the relative viability ([24]; first compound 0.3162 µM) was 0.502.
`C[C@@H]1CN(CC(=O)Nc2ccc3c(c2)Cc2cccc(-c4cc(=O)cc(N5CCOCC5)o4)c2S3)C[C@H](C)O1` + CC(=O)Nc1cccc(-n2c(=O)n(C3CC3)c(=O)c3c(Nc4ccc(I)cc4F)n(C)c(=O)c(C)c32)c1 [Trametinib] (partner 0.02 µM) gave a relative viability ([1]; first compound 0.04 µM) of 0.653, a relative viability ([1]; first compound 0.1265 µM) of 0.682 and a relative viability ([1]; first compound 0.4 µM) of 0.658. For the same molecule, the relative viability ([1]; first compound 4 µM) was 0.676, the relative viability ([2]; first compound 0.04 µM) was 0.349 and the relative viability ([2]; first compound 0.1265 µM) was 0.415. The relative viability ([2]; first compound 0.4 µM) was 0.381, the relative viability ([2]; first compound 4 µM) was 0.34 and the relative viability ([3]; first compound 0.04 µM) was 0.402. For the same molecule, the relative viability ([3]; first compound 0.1265 µM) was 0.535, the relative viability ([3]; first compound 0.4 µM) was 0.502 and the relative viability ([3]; first compound 4 µM) was 0.501. It also gave a relative viability ([4]; first compound 0.04 µM) of 0.541, a relative viability ([4]; first compound 0.1265 µM) of 0.51 and a relative viability ([4]; first compound 0.4 µM) of 0.491. The relative viability ([4]; first compound 4 µM) was 0.513, the relative viability ([5]; first compound 0.04 µM) was 0.309 and the relative viability ([5]; first compound 0.1265 µM) was 0.306. It also gave a relative viability ([5]; first compound 0.4 µM) of 0.304, a relative viability ([5]; first compound 4 µM) of 0.205 and a relative viability ([6]; first compound 0.04 µM) of 0.535. For the same molecule, the relative viability ([6]; first compound 0.1265 µM) was 0.548, the relative viability ([6]; first compound 0.4 µM) was 0.596 and the relative viability ([6]; first compound 4 µM) was 0.286. For the same molecule, the relative viability ([7]; first compound 0.04 µM) was 0.732, the relative viability ([7]; first compound 0.1265 µM) was 0.728 and the relative viability ([7]; first compound 0.4 µM) was 0.675. For the same molecule, the relative viability ([7]; first compound 4 µM) was 0.739, the relative viability ([8]; first compound 0.04 µM) was 0.7 and the relative viability ([8]; first compound 0.1265 µM) was 0.651. For the same molecule, the relative viability ([8]; first compound 0.4 µM) was 0.59, the relative viability ([8]; first compound 4 µM) was 0.66 and the relative viability ([9]; first compound 0.04 µM) was 0.972. For the same molecule, the relative viability ([9]; first compound 0.1265 µM) was 0.99, the relative viability ([9]; first compound 0.4 µM) was 1.14 and the relative viability ([9]; first compound 4 µM) was 1.03. It also gave a relative viability ([10]; first compound 0.04 µM) of 1.05, a relative viability ([10]; first compound 0.1265 µM) of 1.03 and a relative viability ([10]; first compound 0.4 µM) of 1.1. It also gave a relative viability ([10]; first compound 4 µM) of 1.03, a relative viability ([11]; first compound 0.04 µM) of 0.248 and a relative viability ([11]; first compound 0.1265 µM) of 0.224. It also gave a relative viability ([11]; first compound 0.4 µM) of 0.16, a relative viability ([11]; first compound 4 µM) of 0.184 and a relative viability ([12]; first compound 0.04 µM) of 0.47. It also gave a relative viability ([12]; first compound 0.1265 µM) of 0.467, a relative viability ([12]; first compound 0.4 µM) of 0.506 and a relative viability ([12]; first compound 4 µM) of 0.369. The relative viability ([13]; first compound 0.04 µM) was 0.452, the relative viability ([13]; first compound 0.1265 µM) was 0.405 and the relative viability ([13]; first compound 0.4 µM) was 0.383. It also gave a relative viability ([13]; first compound 4 µM) of 0.401, a relative viability ([14]; first compound 0.04 µM) of 0.273 and a relative viability ([14]; first compound 0.1265 µM) of 0.263. For the same molecule, the relative viability ([14]; first compound 0.4 µM) was 0.212, the relative viability ([14]; first compound 4 µM) was 0.189 and the relative viability ([15]; first compound 0.1265 µM) was 1.11. The relative viability ([15]; first compound 0.4 µM) was 0.824, the relative viability ([15]; first compound 4 µM) was 0.97 and the relative viability ([16]; first compound 0.04 µM) was 0.565. It also gave a relative viability ([16]; first compound 0.1265 µM) of 0.415, a relative viability ([16]; first compound 0.4 µM) of 0.414 and a relative viability ([16]; first compound 4 µM) of 0.251. The relative viability ([17]; first compound 0.04 µM) was 0.668, the relative viability ([17]; first compound 0.1265 µM) was 0.629 and the relative viability ([17]; first compound 0.4 µM) was 0.68. For the same molecule, the relative viability ([17]; first compound 4 µM) was 0.693, the relative viability ([18]; first compound 0.04 µM) was 0.518 and the relative viability ([18]; first compound 0.1265 µM) was 0.454. For the same molecule, the relative viability ([18]; first compound 0.4 µM) was 0.477, the relative viability ([18]; first compound 4 µM) was 0.447 and the relative viability ([19]; first compound 0.04 µM) was 0.674. The relative viability ([19]; first compound 0.1265 µM) was 0.507, the relative viability ([19]; first compound 0.4 µM) was 0.509 and the relative viability ([19]; first compound 4 µM) was 0.311. The relative viability ([20]; first compound 0.1265 µM) was 0.165, the relative viability ([20]; first compound 0.4 µM) was 0.165 and the relative viability ([20]; first compound 4 µM) was 0.175. It also gave a relative viability ([21]; first compound 0.04 µM) of 0.575, a relative viability ([21]; first compound 0.1265 µM) of 0.547 and a relative viability ([21]; first compound 0.4 µM) of 0.536. The relative viability ([21]; first compound 4 µM) was 0.421, the relative viability ([22]; first compound 0.04 µM) was 0.386 and the relative viability ([22]; first compound 0.1265 µM) was 0.396. The relative viability ([22]; first compound 0.4 µM) was 0.379, the relative viability ([22]; first compound 4 µM) was 0.386 and the relative viability ([23]; first compound 0.04 µM) was 0.4. For the same molecule, the relative viability ([23]; first compound 0.1265 µM) was 0.374, the relative viability ([23]; first compound 0.4 µM) was 0.297 and the relative viability ([23]; first compound 4 µM) was 0.313. The relative viability ([24]; first compound 0.04 µM) was 0.874, the relative viability ([24]; first compound 0.1265 µM) was 0.796 and the relative viability ([24]; first compound 0.4 µM) was 0.757. It also gave a relative viability ([24]; first compound 4 µM) of 0.695.
